# Measured values taken from patent US20100298141A1, “SUBSTITUTED PYRIDINE N-OXIDE HERBICIDES” (E. I. DU PONT DE NEMOURS AND COMPANY, priority 2007, published 2010).
# Key:
# [1] = tested on: Goosegrass; assay: Test C pre-/postemergence test; format: in vivo, Eleusin indica; conditions: Preemergence
# Summary of the method: (§1)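 Compounds in a non-phytotoxic solvent with surfactant applied preemergence to seeded pots and, at the same time, postemergence to plants 2–18 cm tall (1- to 4-leaf stage). Paddy tests: pots flooded to 3 cm, compound applied into the water, depth held throughout.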
# [2] = tested on: common (oilseed) sunflower; assay: Test C pre-/postemergence test; format: in vivo, Helianthus annuus; conditions: Preemergence
# Summary of the method: as §1
# [3] = tested on: barnyardgrass; assay: Test A pre-/postemergence greenhouse test; format: in vivo, Echinochloa crus-galli; conditions: for Barnyardgrass plant response rating: 0 to 100 scale
# Summary of the method: (§2)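 Visual injury ratings, made relative to untreated controls roughly ten days after treatment, cover both preemergence and postemergence application. Compounds in a surfactant-containing non-phytotoxic solvent were sprayed onto the soil surface after sowing and, simultaneously, onto young plants at the one- to two-leaf stage.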
# [4] = tested on: bermudagrass; assay: Test C pre-/postemergence test; format: in vivo, Cynodon dactylon
# Summary of the method: as §1
# [5] = tested on: morningglory; assay: Test A pre-/postemergence greenhouse test; format: in vivo, Ipomoea spp.; conditions: for Morningglory plant response rating: 0 to 100 scale
# Summary of the method: as §2
# [6] = tested on: lambsquarters; assay: Test C pre-/postemergence test; format: in vivo, Chenopodium album; conditions: Preemergence
# Summary of the method: as §1
# [7] = tested on: redroot pigweed; assay: Test A pre-/postemergence greenhouse test; format: in vivo, Amaranthus retroflexus; conditions: for Pigweed plant response rating: 0 to 100 scale
# Summary of the method: as §2
# [8] = tested on: wheat; assay: Test C pre-/postemergence test; format: in vivo, Triticum aestivum; conditions: Preemergence
# Summary of the method: as §1
# [9] = tested on: pigweed; assay: Test C pre-/postemergence test; format: in vivo, Amaranthus retroflexus; conditions: Preemergence
# Summary of the method: as §1
# [10] = tested on: giant foxtail; assay: Test A pre-/postemergence greenhouse test; format: in vivo, Setaria faberi; conditions: for Foxtail, Giant plant response rating: 0 to 100 scale
# Summary of the method: as §2
# [11] = tested on: corn; assay: Test A pre-/postemergence greenhouse test; format: in vivo, Zea mays; conditions: for Corn plant response rating: 0 to 100 scale
# Summary of the method: as §2
# [12] = tested on: rice; assay: Test C flooded paddy test; format: in vivo, Oryza sativa; conditions: Flood
# Summary of the method: (§3)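 Pots were flooded to 3 cm above the soil surface at treatment, compound applied directly to the paddy water, and that depth held throughout. Plants were kept in a greenhouse for 13 to 15 days, then visually rated against untreated controls.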
# [13] = tested on: Surinam grass; assay: Test C pre-/postemergence test; format: in vivo, Brachiaria decumbens; conditions: Preemergence
# Summary of the method: as §1
# [14] = tested on: wheat; assay: Test A pre-/postemergence greenhouse test; format: in vivo, Triticum aestivum; conditions: for Wheat plant response rating: 0 to 100 scale
# Summary of the method: as §2
# [15] = tested on: eastern black nightshade; assay: Test C pre-/postemergence test; format: in vivo, Solanum ptycanthum; conditions: Preemergence
# Summary of the method: as §1
# [16] = tested on: umbrella sedge; assay: Test C flooded paddy test; format: in vivo, Cyperus difformis; conditions: Flood
# Summary of the method: as §3
# [17] = tested on: crabgrass; assay: Test C pre-/postemergence test; format: in vivo, Digitaria sanguinalis; conditions: Preemergence
# Summary of the method: as §1
# [18] = 31 g ai/ha, scale 0 to 100 (0 no effect, 100 complete control)
# [19] = Postemergence, 125 g ai/ha, 0 is no effect, 100 is complete control
# [20] = Postemergence, 500 g ai/ha, 0 is no effect, 100 is complete control
# [21] = Preemergence, 125 g ai/ha, 0 no effect, 100 complete control
# [22] = Preemergence, 500 g ai/ha, 0 to 100 scale where 0 is no effect and 100 is complete control
# [23] = 62 g ai/ha, scale 0 to 100, 0 no effect, 100 complete control, 13 to 15 days
# [24] = 125 g ai/ha, scale 0 to 100, 0 no effect, 100 complete control, 13 to 15 days
compound,measurement,setting,value
Cn1nc(C(F)(F)F)c(C[S+]([O-])c2cccc[n+]2[O-])c1OCC(F)(F)F (racemic) [Compound 28],Goosegrass plant response rating,"[1]; 62 g ai/ha, scale 0 to 100",100
same,"Plant response rating, Goosegrass",[1]; [18],100
same,"Plant response rating (0 to 100), Goosegrass",[1]; 250 g ai/ha,100
same,Sunflower plant response rating,"[2]; 62 g ai/ha, scale 0 to 100",85
same,"Plant response rating, Sunflower",[2]; [18],50
same,Barnyardgrass plant response rating,[3]; [19],80
same,Barnyardgrass plant response rating,[3]; [20],90
same,Barnyardgrass plant response rating,[3]; [21],90
same,"Plant response rating, Barnyardgrass",[3]; [22],100
same,Bermudagrass plant response rating,"[4]; 62 g ai/ha, Preemergence, scale 0 to 100 (0 no effect, 100 complete control)",100
same,"Plant response rating, Bermudagrass","[4]; Preemergence, 31 g ai/ha, scale 0 to 100 (0 no effect, 100 complete control)",100
same,"Plant response rating (0 to 100), Bermudagrass","[4]; Preemergence, 250 g ai/ha",100
same,Bermudagrass plant response rating,"[4]; preemergence, 125 g ai/ha, scale 0 (no effect) to 100 (complete control)",100
same,Morningglory plant response rating,[5]; [19],60
same,Morningglory plant response rating,[5]; [20],80
same,Morningglory plant response rating,[5]; [21],60
same,"Plant response rating, Morningglory",[5]; [22],90
same,Lambsquarters plant response rating,"[6]; 62 g ai/ha, scale 0 to 100",100
same,"Plant response rating, Lambsquarters",[6]; [18],100
same,Pigweed plant response rating,[7]; [19],70
same,Pigweed plant response rating,[7]; [20],90
same,Pigweed plant response rating,[7]; [21],100
same,"Plant response rating, Pigweed",[7]; [22],100
same,Wheat plant response rating,"[8]; 62 g ai/ha, scale 0 to 100",40
same,"Plant response rating, Wheat",[8]; [18],0
same,Pigweed plant response rating,"[9]; 62 g ai/ha, scale 0 to 100",100
same,"Plant response rating, Pigweed",[9]; [18],100
same,"Foxtail, Giant plant response rating",[10]; [19],90
same,"Foxtail, Giant plant response rating",[10]; [20],90
same,"Foxtail, Giant plant response rating",[10]; [21],100
same,"Plant response rating, Foxtail, Giant",[10]; [22],100
same,Corn plant response rating,[11]; [19],60
same,Corn plant response rating,[11]; [20],70
same,Corn plant response rating,[11]; [21],0
same,"Plant response rating, Corn",[11]; [22],80
same,"Plant response rating, Rice",[12]; [18],0
same,"Plant response rating, Rice",[12]; [23],25
same,"Plant response rating, Rice",[12]; [24],65
same,"Plant response rating, Rice","[12]; 250 g ai/ha, scale 0 to 100 (0 no effect, 100 complete control)",80
same,Surinam Grass plant response rating,"[13]; 62 g ai/ha, scale 0 to 100",100
same,"Plant response rating, Surinam Grass",[13]; [18],85
same,Wheat plant response rating,[14]; [19],60
same,Wheat plant response rating,[14]; [20],70
same,Wheat plant response rating,[14]; [21],70
same,"Plant response rating, Wheat",[14]; [22],100
same,Nightshade plant response rating,"[15]; 62 g ai/ha, scale 0 to 100",100
same,"Plant response rating, Nightshade",[15]; [18],90
same,"Plant response rating, Sedge, Umbrella",[16]; [18],75
same,"Plant response rating, Sedge, Umbrella",[16]; [23],95
same,"Plant response rating, Sedge, Umbrella",[16]; [24],100
same,"Plant response rating, Sedge, Umbrella","[16]; 250 g ai/ha, scale 0 to 100, 0 no effect, 100 complete control, 13 to 15 days",100
same,"Crabgrass, Large plant response rating","[17]; 62 g ai/ha, scale 0 to 100",100
same,"Plant response rating, Crabgrass, Large",[17]; [18],100
same,"Plant response rating (0 to 100), Crabgrass, Large",[17]; 250 g ai/ha,100
